Laboratory results: PubChem BioAssay (NCI)
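The compound was tested at five concentrations on cells cultured in 96-well plates, with a 48-hour exposure period. The concentration for 50% growth inhibition is given as GI50. TGI marks complete inhibition of growth.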

Assays:
Assay in all cases: growth of human tumour cells (NCI), 48 h
HCT-116 colon = system: HCT-116 colon
SK-MEL-2 melanoma = system: SK-MEL-2 melanoma
SK-MEL-28 melanoma = system: SK-MEL-28 melanoma
HCT-15 colon = system: HCT-15 colon
SK-MEL-5 melanoma = system: SK-MEL-5 melanoma
COLO 205 colon = system: COLO 205 colon
MCF7 breast = system: MCF7 breast
CCRF-CEM leukemia = system: CCRF-CEM leukemia
HS 578T breast = system: HS 578T breast
SNB-75 CNS = system: SNB-75 CNS
RPMI-8226 leukemia = system: RPMI-8226 leukemia
RXF 393 renal = system: RXF 393 renal
MDA-MB-231 breast = system: MDA-MB-231 breast
BT-549 breast = system: BT-549 breast
LOX IMVI melanoma = system: LOX IMVI melanoma
UACC-257 melanoma = system: UACC-257 melanoma
PC-3 prostate = system: PC-3 prostate
NCI-H460 lung = system: NCI-H460 lung
T-47D breast = system: T-47D breast
HOP-92 NSCLC = system: HOP-92 NSCLC
SNB-19 CNS = system: SNB-19 CNS
EKVX NSCLC = system: EKVX NSCLC
HCC-2998 colon = system: HCC-2998 colon
KM12 colon = system: KM12 colon
UO-31 renal = system: UO-31 renal
OVCAR-8 ovarian = system: OVCAR-8 ovarian
HOP-62 NSCLC = system: HOP-62 NSCLC
A498 renal = system: A498 renal
SF-539 CNS = system: SF-539 CNS
SF-295 CNS = system: SF-295 CNS
SR leukemia = system: SR leukemia
ACHN renal = system: ACHN renal
A549 NSCLC = system: A549 NSCLC
OVCAR-5 ovarian = system: OVCAR-5 ovarian
NCI-H23 lung = system: NCI-H23 lung
NCI/ADR-RES ovarian = system: NCI/ADR-RES ovarian
DU-145 prostate = system: DU-145 prostate
HL-60(TB) leukemia = system: HL-60(TB) leukemia
UACC-62 melanoma = system: UACC-62 melanoma
MDA-MB-435 = system: MDA-MB-435
786-0 renal = system: 786-0 renal
SN12C renal = system: SN12C renal
IGROV1 ovarian = system: IGROV1 ovarian
M14 melanoma = system: M14 melanoma
SK-OV-3 ovarian = system: SK-OV-3 ovarian
TK-10 renal = system: TK-10 renal
SW-620 colon = system: SW-620 colon
OVCAR-3 ovarian = system: OVCAR-3 ovarian
MALME-3M melanoma = system: MALME-3M melanoma
NCI-H226 lung = system: NCI-H226 lung
MOLT-4 leukemia = system: MOLT-4 leukemia
K-562 leukemia = system: K-562 leukemia
U251 CNS = system: U251 CNS
CAKI-1 renal = system: CAKI-1 renal
NCI-H522 lung = system: NCI-H522 lung
OVCAR-4 ovarian = system: OVCAR-4 ovarian
HT29 colon = system: HT29 colon
SF-268 CNS = system: SF-268 CNS

C[C@H]1[C@H](C)CC[C@]2(C(=O)O)CC[C@]3(C)C(=CC[C@@H]4[C@@]5(C)C/C(=C/c6cccnc6)[C@H](O)C(C)(C)[C@@H]5CC[C@]43C)[C@H]12
GI50 (HCT-116 colon): 10.7 µM | TGI (HCT-116 colon): 26.8 µM | GI50 (SK-MEL-2 melanoma): 13.9 µM | TGI (SK-MEL-2 melanoma): 44.4 µM | GI50 (SK-MEL-28 melanoma): 13.7 µM | TGI (SK-MEL-28 melanoma): 34.6 µM | GI50 (HCT-15 colon): 10.7 µM | TGI (HCT-15 colon): 52 µM | GI50 (SK-MEL-5 melanoma): 13.7 µM | TGI (SK-MEL-5 melanoma): 35.7 µM | GI50 (COLO 205 colon): 14.6 µM | TGI (COLO 205 colon): 32.4 µM | GI50 (MCF7 breast): 12.1 µM | TGI (MCF7 breast): > 100 µM | GI50 (CCRF-CEM leukemia): 6.43 µM | TGI (CCRF-CEM leukemia): 40.8 µM | GI50 (HS 578T breast): 28.8 µM | TGI (HS 578T breast): > 100 µM | GI50 (SNB-75 CNS): 28.6 µM | TGI (SNB-75 CNS): > 100 µM | GI50 (RPMI-8226 leukemia): 6.03 µM | TGI (RPMI-8226 leukemia): 41.5 µM | GI50 (RXF 393 renal): 13.7 µM | TGI (RXF 393 renal): 36.6 µM | GI50 (MDA-MB-231 breast): 22.5 µM | TGI (MDA-MB-231 breast): 72.1 µM | GI50 (BT-549 breast): 18.3 µM | TGI (BT-549 breast): > 100 µM | GI50 (LOX IMVI melanoma): 13.4 µM | TGI (LOX IMVI melanoma): 28.1 µM | GI50 (UACC-257 melanoma): 21 µM | TGI (UACC-257 melanoma): 81.2 µM | GI50 (PC-3 prostate): 6.35 µM | TGI (PC-3 prostate): > 100 µM | GI50 (NCI-H460 lung): 8.88 µM | TGI (NCI-H460 lung): 26.6 µM | GI50 (T-47D breast): 9.88 µM | TGI (T-47D breast): > 100 µM | GI50 (HOP-92 NSCLC): 13.8 µM | TGI (HOP-92 NSCLC): 67.7 µM | GI50 (SNB-19 CNS): 20.5 µM | TGI (SNB-19 CNS): > 100 µM | GI50 (EKVX NSCLC): 13.3 µM | TGI (EKVX NSCLC): 87.6 µM | GI50 (HCC-2998 colon): 15.7 µM | TGI (HCC-2998 colon): 43.5 µM | GI50 (KM12 colon): 7.61 µM | TGI (KM12 colon): 36.1 µM | GI50 (UO-31 renal): 12.5 µM | TGI (UO-31 renal): 26.4 µM | GI50 (OVCAR-8 ovarian): 20.5 µM | TGI (OVCAR-8 ovarian): > 100 µM | GI50 (HOP-62 NSCLC): 16.4 µM | TGI (HOP-62 NSCLC): 55.6 µM | GI50 (A498 renal): > 100 µM | TGI (A498 renal): > 100 µM | GI50 (SF-539 CNS): 15.6 µM | TGI (SF-539 CNS): 36.3 µM | GI50 (SF-295 CNS): 4.83 µM | TGI (SF-295 CNS): 25.8 µM | GI50 (SR leukemia): 20.7 µM | TGI (SR leukemia): 82.8 µM | GI50 (ACHN renal): 10.2 µM | TGI (ACHN renal): > 100 µM | GI50 (A549 NSCLC): 5.27 µM | TGI (A549 NSCLC): 62.4 µM | GI50 (OVCAR-5 ovarian): 20.9 µM | TGI (OVCAR-5 ovarian): 64.8 µM | GI50 (NCI-H23 lung): 17.4 µM | TGI (NCI-H23 lung): > 100 µM | GI50 (NCI/ADR-RES ovarian): 18.5 µM | TGI (NCI/ADR-RES ovarian): 68.5 µM | GI50 (DU-145 prostate): 15.4 µM | TGI (DU-145 prostate): > 100 µM | GI50 (HL-60(TB) leukemia): 9.83 µM | TGI (HL-60(TB) leukemia): 32.6 µM | GI50 (UACC-62 melanoma): 11.7 µM | TGI (UACC-62 melanoma): 35 µM | GI50 (MDA-MB-435): 27.6 µM | TGI (MDA-MB-435): > 100 µM | GI50 (786-0 renal): 25.9 µM | TGI (786-0 renal): > 100 µM | GI50 (SN12C renal): 18.1 µM | TGI (SN12C renal): 97.3 µM | GI50 (IGROV1 ovarian): 26.4 µM | TGI (IGROV1 ovarian): > 100 µM | GI50 (M14 melanoma): 17.7 µM | TGI (M14 melanoma): 49 µM | GI50 (SK-OV-3 ovarian): 19.9 µM | TGI (SK-OV-3 ovarian): > 100 µM | GI50 (TK-10 renal): 28.4 µM | TGI (TK-10 renal): > 100 µM | GI50 (SW-620 colon): 20.9 µM | TGI (SW-620 colon): > 100 µM | GI50 (OVCAR-3 ovarian): 13.5 µM | TGI (OVCAR-3 ovarian): 31.1 µM | GI50 (MALME-3M melanoma): 18.3 µM | TGI (MALME-3M melanoma): 51.2 µM | GI50 (NCI-H226 lung): 15.3 µM | TGI (NCI-H226 lung): 56.8 µM | GI50 (MOLT-4 leukemia): 8.74 µM | TGI (MOLT-4 leukemia): 58.2 µM | GI50 (K-562 leukemia): 6.79 µM | TGI (K-562 leukemia): > 100 µM | GI50 (U251 CNS): 10.9 µM | TGI (U251 CNS): 27.8 µM | GI50 (CAKI-1 renal): 17.8 µM | TGI (CAKI-1 renal): > 100 µM | GI50 (NCI-H522 lung): 13 µM | TGI (NCI-H522 lung): 94.3 µM | GI50 (OVCAR-4 ovarian): 43 µM | TGI (OVCAR-4 ovarian): > 100 µM | GI50 (HT29 colon): 14.4 µM | TGI (HT29 colon): 33.9 µM | GI50 (SF-268 CNS): 24.3 µM | TGI (SF-268 CNS): > 100 µM
